Data on three compounds can be found in patent publication US12139735B2, “Cell culture process” (Momenta Pharmaceuticals, Inc., priority 2011, dated 2024).

Structures are written as SMILES.

For series [1], the system named is K1 and K2 lysine residues. Nature of the series: Additional culture data: levels of K1/K2 lysine residues of the antibody produced. The note with it: included in culture media, compared to controls. Format: cell-based.
A further series deals with CL320 CHO cells. The series can be described thus: Growth (VCD), viability and antibody titer of the culture with supplemented feed. The note with it: addition of 10 mg/L (so in the source). Format: cell-based. As to the method: The carboxyl-terminal lysine residues of a model antibody produced by CHO cells were analyzed. […] […] On Day 5, 10 g/L cottonseed hydrolysate was added. VCD and viability were assessed, and cells were harvested on Day 10. The antibodies produced under the various conditions were evaluated for titer and C-terminal lysine by ion exchange chromatography.

Take `Cl.N` [NH4Cl, ammonium chloride]: in series [1], the “levels of K1 and K2 lysine residues” value is reported as “increased”.
Consider `NCCCC[C@H](N)C(=O)O` [L-Lys, L-lysine], for which, in the series on CL320 CHO cells, the effect on growth result is on record as “did not affect”, the effect on titers entry is reported as “did not affect” and the effect on viability result is given as “did not affect”.
In the case of `N=C(N)NCCC[C@H](N)C(=O)O` [L-Arg, L-arginine], in the series with CL320 CHO cells, the effect on growth result is “did not affect”, the effect on titers result is “did not affect” and the effect on viability entry was “did not affect”.
